Experiment: Plasma clearance and tissue distribution (in vivo imaging of DiR fluorescence)
Details: HepG2 tumor-bearing BALB/c nude mice, intravenous injection, FIG. 12 to FIG. 13
Description: Female BALB/c nude mice bearing HepG2 subcutaneous tumors (about 70 mm^3) were randomly divided into three groups with 3 mice in each group, and intravenously injected with DiR, ^DiRODML, or ^DiRODEL. 24 h later, blood was collected from the orbital veins of mice. 500 μL of a blood sample was taken and tested by a small animal in vivo imaging instrument for a fluorescence intensity. Mice were dissected, and tissues such as a heart, a liver, a spleen, a lung, a kidney, an intestine, and a tumor were collected. Each tissue was detected by a small animal in vivo imaging instrument for a fluorescence intensity.

CCCCCCCCCCCCCCCCCCN1/C(=C/C=C/C=C/C=C/C2=[N+](CCCCCCCCCCCCCCCCCC)c3ccccc3C2(C)C)C(C)(C)c2ccccc21.[I-] [DiR]
DiR fluorescence signal in the blood or tissues: Almost no fluorescence signal

From patent US20250313527A1, “AMPHIPHILIC LIPID INCLUDING TERTIARY AMINE N-OXIDE GROUP, LIPOSOMAL DRUG-DELIVERY SYSTEM, AND USE OF AMPHIPHILIC LIPID” (HANGZHOU TITO BIOTECHNOLOGY PARTNERSHIP ENTERPRISE (LIMITED …, priority 2022, published 2025)
